{
  "source": "patent US9821072B2",
  "about": "“Activated neurotensin molecules and the uses thereof” (priority 2014, dated 2017)",
  "key": {"[1]": {"target": "T1, human neurotensin receptor type 1 (hNTR-1) (Homo sapiens, UniProt P30989)", "T1 construct": "purchased PerkinElmer; host or cells: CHO cells stably expressing human NTR-1 (membrane homogenates)", "T1 sequence (P30989 whole entry)": "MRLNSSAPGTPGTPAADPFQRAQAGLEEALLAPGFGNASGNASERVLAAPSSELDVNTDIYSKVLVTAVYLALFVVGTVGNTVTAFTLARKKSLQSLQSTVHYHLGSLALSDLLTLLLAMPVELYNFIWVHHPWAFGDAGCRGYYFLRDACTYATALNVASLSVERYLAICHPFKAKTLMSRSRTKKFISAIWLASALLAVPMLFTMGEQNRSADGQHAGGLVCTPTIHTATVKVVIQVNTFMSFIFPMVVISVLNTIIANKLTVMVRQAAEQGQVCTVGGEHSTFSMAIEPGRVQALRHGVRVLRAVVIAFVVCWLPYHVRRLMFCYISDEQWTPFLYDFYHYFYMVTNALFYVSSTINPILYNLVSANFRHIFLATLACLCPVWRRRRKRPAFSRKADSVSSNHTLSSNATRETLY", "test": "Competition binding assay with [3H]-neurotensin on human NTR-1 membranes (CHO cells)", "conditions": "read-out: NTR-1 binding affinity Ki, Human NTR-1"}, "[2]": {"tested_on": "blood-retina barrier (BRB), eye", "parameters": "species or system C57Bl/6 mice", "conditions": "mouse, in vivo", "description": "(§1) Transport kinetics at the BBB and blood-retina barrier (BRB) of the conjugates of the invention was assessed using an in situ brain perfusion technique in adult male C57Bl/6 mice. Radiolabeled activated NT compounds were obtained either by coupling [3H]Tyr3-NT with the AG or by coupling a tritiated AG to NT molecules. NT was radiolabeled by catalytic dehalogenation of iodoTyr3-NT using tritium gas while AG was radiolabeled by coupling a tritiated propionyl succinimide ester to its N-terminus. The specific radioactivity (SRA) was typically in the range of 50 Ci/mmol. The total quantity of radioactivity prepared for each synthesis was generally between 100 and 1000 μCi.\n(§2) The in situ brain perfusion technique enables total control of the composition of the artificial perfusate in order to maintain the cells and vascularization of the brain under normal physiological and anatomical conditions within the animal, without the disrupting factor of systemic distribution. […]\n(§3) In situ brain perfusion of the radiolabeled compounds of the invention was performed during 120 s with a perfusate flow rate of 2 mL/min. The initial transport was expressed as the transfer coefficient Kin (relationship between distribution volume of the test compound, corrected for the vascular volume, and cerebral perfusion time)."}, "BBB (brain)": {"tested_on": "BBB (brain)", "parameters": "species or system C57Bl/6 mice", "conditions": "mouse, in vivo", "description": "as §1, §2, §3"}, "mice [3]": {"tested_on": "mice", "test": "Tolerance / toxicity after i.v. bolus in mice (MTD, LD50)", "assay_type": "in vivo, mouse", "description": "NT, which is similar to that measured for compound I and compound II. […] When injected at 20 mg/kg eq. NT in mice, compound XIV was still well-tolerated with no additional safety concerns. […] NT. The Maximal Tolerated Dose (MTD) was 40 mg/kg eq. […] Given that the MED was about 0.1 mg/kg eq. NT, this pharmacodynamic/toxicity profile constitutes an excellent safety prerequisite since i) it prevents potentially lethal overdose due to exacerbated pharmacological hypothermia, and ii) using the intravenous (bolus) mode of administration, the therapeutic window, which is expressed as the fold increase between the MED and MTD, is about 400, with 4-fold security between the dose level eliciting a maximal hypothermic response and that inducing mild/non-lethal toxicity."}, "Swiss (CD-1) mice": {"tested_on": "Swiss (CD-1) mice", "test": "Hypothermic response (rectal body temperature) after i.v. bolus in Swiss (CD-1) mice", "assay_type": "in vivo, mouse"}, "[4]": {"tested_on": "FVB/N mice with KA-induced status epilepticus", "test": "Kainic acid-induced status epilepticus model (body temperature, seizures, neurodegeneration, neuroinflammation, mossy fiber sprouting)", "assay_type": "in vivo, mouse", "conditions": "30 min after SE onset; first of two values, presumably 2 mg/kg eq. NT"}, "[5]": {"tested_on": "NMRI mice with yeast-induced hyperthermia", "test": "Antipyretic effect in yeast-induced hyperthermia in NMRI mice", "assay_type": "in vivo, mouse", "description": "In addition to eliciting a strong hypothermic effect when injected intravenously in naïve mice, we assessed the antipyretic effect of activated NT drugs of the invention in mice with yeast-induced hyperthermia. Briefly, rectal temperature of male NMRI mice was first measured 14 hours before the test using a rectal probe (Baseline 1, two independent measurements at a minimum of 5 min interval). Mice were then injected subcutaneously with either a yeast suspension (512 mg/kg), to induce a hyperthermic response, or hydroxypropylmethylcellulose (HPMC) in saline 0.9%. Fourteen hours later, rectal temperature of the mice was measured again (Baseline 2, two independent measurements at a minimum of 5 min interval) in order to assess the effect of yeast or HPMC injection on baseline temperature."}, "[6]": {"test": "In vitro blood stability in freshly collected mouse blood (LC-MS/MS)", "assay_type": "in vitro ADME, Swiss (CD-1) mouse", "conditions": "whole blood, 2 μM, 37° C."}, "mice [7]": {"tested_on": "mice", "test": "Writhing test (acetic acid, acute visceral pain) in mice", "assay_type": "in vivo, mouse", "conditions": "30 min before acetic acid i.p.", "description": "In order to evaluate the antinociceptive potential of activated NT drugs, compound XIV was tested in an experimental pain model in mice. The writhing test was used as a model of acute visceral pain to assess the effect of compound XIV after intravenous administration. Given that the time to maximal decrease in body temperature in mice receiving compound XIV was around 45 min post-injection, we assumed similar pharmacodynamic kinetics in this pain model. Mice first received intravenous (bolus) injection of compound XIV at increasing dose levels, followed 30 min thereafter by intraperitoneal injection of acetic acid 0.7% (10 mL/kg). In control mice, intraperitoneal injection of acetic acid produces characteristic and quantifiable abdominal stretches (elongation of the body and extension of forelimbs) as early as 2-3 minutes following injection and reaching a peak between 5 and 15 min following injection. This time window was therefore used to evaluate the number of abdominal stretches (writhes counted over 10 min observation) in mice administered with either saline or compound XIV at 0.5, 1 or 5 mg/kg eq. NT."}},
  "data": [
    {"smiles": "CCC(=O)N[C@@H]1CSSC[C@@H](C(=O)NCCOCCOCCOCCOCCOCCOCCC(=O)N[C@@H](CCCNC(=N)N)C(=O)N[C@@H](CCCNC(=N)N)C(=O)N2CCC[C@H]2C(=O)N[C@@H](Cc2ccc(O)cc2)C(=O)N[C@H](C(=O)N[C@@H](CC(C)C)C(=O)O)[C@@H](C)CC)NC(=O)CN(C)C(=O)[C@H](CCCNC(=N)N)NC(=O)[C@H](CC(C)C)NC(=O)[C@H](CCCNC(=N)N)NC(=O)[C@@H]2CCCCN2C(=O)[C@H](CCSC)NC1=O", "note": "[Compound XIV, Pr-cMPipRLRSarC-PEG6-RRPYIL-OH]", "values": [
      {"measurement": "Ki", "setting": "[1]", "result": "0.22 ± 0.06", "unit": "nM"},
      {"measurement": "transfer coefficient Kin in the eye", "setting": "[2]", "result": 0.00033, "unit": "mL/s/g"},
      {"measurement": "transfer coefficient Kin in the brain", "setting": "BBB (brain)", "result": 0.000365, "unit": "mL/s/g"},
      {"measurement": "tolerance", "setting": "mice [3]; 20 mg/kg eq. NT, mice", "result": "well-tolerated"},
      {"measurement": "security between dose eliciting maximal hypothermic response and dose inducing mild/non-lethal toxicity", "setting": "mice [3]; i.v. bolus", "result": 4, "unit": "fold"},
      {"measurement": "therapeutic window (fold increase between the MED and MTD)", "setting": "mice [3]; i.v. bolus", "result": "about 400 fold"},
      {"measurement": "Maximal Tolerated Dose (MTD)", "setting": "mice [3]; i.v. bolus, mice", "result": 40, "unit": "mg/kg eq. NT"},
      {"measurement": "LD50 (Lethal Dose, 50%)", "setting": "mice [3]; i.v. bolus, mice, not reached", "result": "> 40", "unit": "mg/kg eq. NT"},
      {"measurement": "Maximal decrease in body temperature", "setting": "Swiss (CD-1) mice; 10 mg/kg eq. NT i.v. bolus, 60 min post-injection", "result": "−6.7", "unit": "°C"},
      {"measurement": "hypothermic response at 20 mg/kg eq. NT versus 10 mg/kg eq. NT", "setting": "Swiss (CD-1) mice; 20 mg/kg eq. NT, mice", "result": "No further decrease in body temperature"},
      {"measurement": "Minimal Effective Dose (MED), hypothermic effect", "setting": "Swiss (CD-1) mice; i.v. bolus", "result": "about 0.1 mg/kg eq. NT"},
      {"measurement": "ED50, hypothermic effect", "setting": "Swiss (CD-1) mice; i.v. bolus, dose-response", "result": 1.53, "unit": "mg/kg eq. NT"},
      {"measurement": "mean decrease in body temperature compared to SE animals (first value)", "setting": "[4]", "result": "−2.5", "unit": "°C"},
      {"measurement": "further decrease of body temperature", "setting": "[5]; 6 mg/kg eq. NT i.v.", "result": 4.7, "unit": "°C"},
      {"measurement": "maximal antipyretic effect compared to Baseline 2 or saline", "setting": "[5]; as of 2 mg/kg eq. NT i.v., 15 min post-injection", "result": "−2.2", "unit": "°C"},
      {"measurement": "half-life", "setting": "[6]", "result": 1.6, "unit": "h"},
      {"measurement": "antinociceptive effect on writhe count", "setting": "mice [7]; 0.5 mg/kg eq. NT i.v.", "result": "no effect"},
      {"measurement": "reduction of the writhe count", "setting": "mice [7]; 1 mg/kg eq. NT i.v.", "result": 50, "unit": "%"},
      {"measurement": "reduction of the writhe count", "setting": "mice [7]; 5 mg/kg eq. NT i.v.", "result": 64, "unit": "%"}
    ]}
  ]
}
